# According to ChEMBL document CHEMBL5344452, “TYK2 Inhibitors for Treating Autoimmune and Inflammatory Diseases” (ACS Med Chem Lett, 2024):
# Biological target: Non-receptor tyrosine-protein kinase TYK2 (Homo sapiens, UniProt P29597)
# Experiment: Inhibition of human TYK2 JH2 domain (575 to 876 residues) incubated for 60 mins by TR-FRET assay
# Non-receptor tyrosine-protein kinase TYK2, sequence (P29597 whole entry, the tested form may be a part): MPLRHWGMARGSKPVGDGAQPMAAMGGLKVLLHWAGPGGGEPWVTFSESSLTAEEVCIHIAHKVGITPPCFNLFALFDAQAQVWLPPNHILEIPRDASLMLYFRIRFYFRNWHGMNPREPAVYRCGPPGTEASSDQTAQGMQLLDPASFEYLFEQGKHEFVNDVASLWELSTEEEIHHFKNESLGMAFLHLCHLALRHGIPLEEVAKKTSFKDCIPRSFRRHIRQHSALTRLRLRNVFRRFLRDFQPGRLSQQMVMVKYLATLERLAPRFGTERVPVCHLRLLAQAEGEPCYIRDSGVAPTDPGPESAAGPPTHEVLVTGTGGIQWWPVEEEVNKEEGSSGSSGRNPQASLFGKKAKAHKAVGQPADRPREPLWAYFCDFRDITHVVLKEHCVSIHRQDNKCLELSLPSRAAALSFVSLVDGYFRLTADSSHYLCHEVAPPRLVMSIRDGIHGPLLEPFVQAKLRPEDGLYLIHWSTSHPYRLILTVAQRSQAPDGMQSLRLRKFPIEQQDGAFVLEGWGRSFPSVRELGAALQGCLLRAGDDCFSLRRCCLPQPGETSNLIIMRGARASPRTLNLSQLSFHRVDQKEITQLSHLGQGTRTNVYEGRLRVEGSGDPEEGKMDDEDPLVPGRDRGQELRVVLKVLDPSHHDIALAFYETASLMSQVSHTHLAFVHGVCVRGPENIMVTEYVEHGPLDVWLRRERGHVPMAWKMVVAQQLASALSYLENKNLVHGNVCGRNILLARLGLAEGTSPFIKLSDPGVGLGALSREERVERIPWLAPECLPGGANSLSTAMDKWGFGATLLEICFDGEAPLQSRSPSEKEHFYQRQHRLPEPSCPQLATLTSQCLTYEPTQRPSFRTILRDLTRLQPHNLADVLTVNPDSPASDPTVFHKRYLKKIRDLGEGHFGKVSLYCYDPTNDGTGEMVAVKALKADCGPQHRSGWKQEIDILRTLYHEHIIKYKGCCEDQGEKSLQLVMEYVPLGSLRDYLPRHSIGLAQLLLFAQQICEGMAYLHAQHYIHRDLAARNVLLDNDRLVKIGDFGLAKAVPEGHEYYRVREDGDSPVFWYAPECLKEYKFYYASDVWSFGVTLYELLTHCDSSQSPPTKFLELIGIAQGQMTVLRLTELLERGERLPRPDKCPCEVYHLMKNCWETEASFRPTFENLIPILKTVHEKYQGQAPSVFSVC
row,Structure (SMILES),IC50 [nM]
1,CC(=O)Nc1cc2c(cn1)c(-c1ccn(C)n1)nn2-c1ccnc(C(C)(F)F)n1,≤ 10
2,CC(=O)Nc1cc2c(cn1)c(-c1ccc(C)nc1)nn2-c1ccnc(C(C)(F)F)n1,≤ 10

# Continued, values first:
row,IC50 [nM],Structure (SMILES)
1,≤ 10,CC(=O)Nc1cc2c(cn1)c(C)nn2-c1nc(C2CCOC2)c(C)s1 (stereo unspecified)
2,≤ 10,CC(=O)Nc1cc2c(cn1)c(N1CC3(COC3)C1)nn2-c1nccc(C(C)(F)F)n1
3,≤ 10,COC1CC(Oc2cc(C3CCOC3)nc(-n3nc(C4CC4)c4cnc(NC(C)=O)cc43)c2)C1 (stereo unspecified)
4,≤ 10,CC(=O)Nc1cc2c(cn1)c(C)nn2-c1cccc(C2CCOC2)n1 (stereo unspecified)
